Several values for one entry are separate records, joined by “and”; a condition that tells them apart may be missing. Equal entries are not always repeated. Inconclusive results and toxic doses are left out. The calls were made as follows: active = survival T/C of 150% or more; inactive = T/C below 125% in these data.
Test system: P388 leukemia ip, CD2F1 mice, survival T/C
Assay: NCI In Vivo Anticancer Drug Screen. Data for tumor model P388 Leukemia (intraperitoneal) in CD2F1 (CDF1) mice
Conditions: endpoint: median survival time, higher = longer survival
Procedure, shortened: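 Mice carrying the transplanted tumor received test compound or vehicle. Survival was recorded in each group, and the value is the treated-group measurement divided by that of the vehicle-treated control group.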

[1] = dose: 50.0 mg/kg/injection, schedule: Q01DX009 (ip), vehicle: saline
[2] = dose: 50.0 mg/kg/injection, schedule: Q04DX003 (ip), vehicle: saline with Tween-80
[3] = dose: 100.0 mg/kg/injection, schedule: Q04DX003 (ip), vehicle: saline with Tween-80
[4] = dose: 50.0 mg/kg/injection, schedule: Q01DX005 (ip), vehicle: Klucel (hydroxypropylcellulose) (HPC)
[5] = dose: 100.0 mg/kg/injection, schedule: Q01DX005 (ip), vehicle: Klucel (hydroxypropylcellulose) (HPC)
[6] = dose: 200.0 mg/kg/injection, schedule: Q01DX005 (ip), vehicle: Klucel (hydroxypropylcellulose) (HPC)
[7] = dose: 100.0 mg/kg/injection, schedule: Q01DX001 (ip), vehicle: Klucel (hydroxypropylcellulose) (HPC)
[8] = dose: 60.0 mg/kg/injection, schedule: Q01DX005 (ip), vehicle: saline with Tween-80
[9] = dose: 120.0 mg/kg/injection, schedule: Q01DX005 (ip), vehicle: saline with Tween-80
[10] = dose: 240.0 mg/kg/injection, schedule: Q01DX005 (ip), vehicle: saline with Tween-80
[11] = dose: 50.0 mg/kg/injection, schedule: Q01DX005 (ip), vehicle: saline with Tween-80
[12] = dose: 100.0 mg/kg/injection, schedule: Q01DX005 (ip), vehicle: saline with Tween-80
[13] = dose: 200.0 mg/kg/injection, schedule: Q01DX005 (ip), vehicle: saline with Tween-80
[14] = dose: 60.0 mg/kg/injection, schedule: Q01DX005 (ip), vehicle: Klucel (hydroxypropylcellulose) (HPC)
[15] = dose: 120.0 mg/kg/injection, schedule: Q01DX005 (ip), vehicle: Klucel (hydroxypropylcellulose) (HPC)
[16] = dose: 200.0 mg/kg/injection, schedule: Q04DX003 (ip), vehicle: saline with Tween-80
[17] = dose: 400.0 mg/kg/injection, schedule: Q04DX003 (ip), vehicle: saline with Tween-80
[18] = dose: 25.0 mg/kg/injection, schedule: Q01DX001 (ip), vehicle: Klucel (hydroxypropylcellulose) (HPC)

Measured: T/C

Nc1nc(SCc2cccc(Br)c2)c2ncn(C3OC(CO)C(O)C3O)c2n1 (stereo not drawn)
inactive: dose: 50.0 mg/kg/injection, schedule: Q01DX009 (ip), vehicle: saline with Tween-80 109 % of control | dose: 66.0 mg/kg/injection, schedule: Q01DX009 (ip), vehicle: saline with Tween-80 100 % of control | dose: 200.0 mg/kg/injection, schedule: Q01DX009 (ip), vehicle: saline with Tween-80 104 % of control

Cc1[nH]c2ccccc2c1SCc1ccccc1
inactive: dose: 25.0 mg/kg/injection, schedule: Q01DX009 (ip), vehicle: saline + alcohol 94 % of control | dose: 50.0 mg/kg/injection, schedule: Q01DX009 (ip), vehicle: saline + alcohol 100 % of control | dose: 100.0 mg/kg/injection, schedule: Q01DX009 (ip), vehicle: saline + alcohol 99 % of control

C=CCN1Cc2ccccc2-c2ccccc2C1
inactive: [1] 94 % of control | dose: 100.0 mg/kg/injection, schedule: Q01DX009 (ip), vehicle: saline 106 % of control | dose: 200.0 mg/kg/injection, schedule: Q01DX009 (ip), vehicle: saline 108 % of control

O=C(COC1CCCCC1)OC1CCCCC1
inactive: [2] 100 % of control | [3] 100 % of control

CC1(C)CC(Nc2ccccc2)=CC(=S)N1
inactive: [4] 100 % of control | [5] 103 % of control | [6] 100 % of control

COc1c2ccccc2c(C)c2ccc3ccccc3c12
inactive: [7] 107 % of control | dose: 200.0 mg/kg/injection, schedule: Q01DX001 (ip), vehicle: Klucel (hydroxypropylcellulose) (HPC) 111 % of control

O=C(O)CCCCCCCCC(=O)CCl
inactive: dose: 25.0 mg/kg/injection, schedule: Q01DX009 (ip), vehicle: saline 99 % of control | [1] 115 % of control

CCOP(=O)(NCCCOC)OCC
inactive: dose: 25.0 mg/kg/injection, schedule: Q01DX005 (ip), vehicle: saline 97 % of control | dose: 50.0 mg/kg/injection, schedule: Q01DX005 (ip), vehicle: saline 100 % of control | dose: 100.0 mg/kg/injection, schedule: Q01DX005 (ip), vehicle: saline 99 % of control

COc1ccc2nc(-c3ccc(Cl)cc3)cc(C(=O)O)c2c1
inactive: [4] 99 % of control | [5] 100 % of control | [6] 100 % of control

Nc1nc(-c2cc(-c3cccc([N+](=O)[O-])c3Cl)nc(N)n2)cc(-c2cccc([N+](=O)[O-])c2Cl)n1
inactive: [8] 105 % of control | [9] 101 % of control | [10] 100 % of control

CCOC(=O)NP1(=O)NCc2ccccc2CN1
inactive: [11] 103 % of control | [12] 99 % of control | [13] 90 % of control

Nc1nc(N)c2c(n1)CCCC2
inactive: dose: 6.25 mg/kg/injection, schedule: Q04DX003 (ip), vehicle: saline with Tween-80 105 % of control | dose: 12.5 mg/kg/injection, schedule: Q04DX003 (ip), vehicle: saline with Tween-80 100 % of control | dose: 25.0 mg/kg/injection, schedule: Q04DX003 (ip), vehicle: saline with Tween-80 100 % of control

CCOC(=O)c1ccc(N(CC(O)CN)S(=O)(=O)c2ccc(C)cc2)cc1 (stereo not drawn)
inactive: dose: 15.0 mg/kg/injection, schedule: Q01DX005 (ip), vehicle: saline with Tween-80 102 % of control | dose: 30.0 mg/kg/injection, schedule: Q01DX005 (ip), vehicle: saline with Tween-80 101 % of control | [8] 101 % of control and 92 % of control

CCCCCC(/C=C/C1C(O[Si](C)(C)C(C)(C)C)CC(N(C)C)C1(C/C=C/CCCC#N)S(=O)(=O)c1ccccc1)O[Si](C)(C)C(C)(C)C (stereo not drawn)
inactive: [14] 86 % of control | [15] 86 % of control

CC(C)CC1SCC(=O)N1c1nncs1 (stereo not drawn)
inactive: [8] 103 % of control | [9] 97 % of control | [10] 98 % of control

CC(C)(C(=O)O)c1csc(-c2ccc(Cl)cc2)n1
inactive: [11] 98 % of control | [12] 102 % of control | [13] 93 % of control

O=C1CCC(C(=O)N/N=C\C=N/NC(=O)C2CCC(=O)N2)N1 (stereo not drawn)
inactive: dose: 5.0 mg/kg/injection, schedule: Q01DX009 (ip), vehicle: saline with Tween-80 101 % of control | dose: 10.0 mg/kg/injection, schedule: Q01DX009 (ip), vehicle: saline with Tween-80 103 % of control | dose: 20.0 mg/kg/injection, schedule: Q01DX009 (ip), vehicle: saline with Tween-80 103 % of control

Cn1c2c(c(=O)c3c4[nH]c5c(c(=O)c4ccc31)CCCC5)CCCC2
inactive: [4] 108 % of control | [2] 103 % of control | [5] 101 % of control | [3] 103 % of control and 96 % of control | [6] 94 % of control | [16] 99 % of control | [17] 100 % of control and 94 % of control

O=C(CO)C1CC2CCC1C2 (stereo not drawn)
inactive: [14] 101 % of control | [15] 101 % of control | dose: 240.0 mg/kg/injection, schedule: Q01DX005 (ip), vehicle: Klucel (hydroxypropylcellulose) (HPC) 99 % of control

O=c1[nH]c(=S)c2c(n1CCCO)CCC2
inactive: [4] 97 % of control | [5] 101 % of control | [6] 105 % of control

Clc1ccc(OCCBr)cc1
inactive: [2] 105 % of control | [3] 101 % of control | [16] 105 % of control | [17] 99 % of control

NC(=S)c1ccc(C=Nc2ccc(I)cc2)cc1
inactive: [18] 93 % of control | dose: 50.0 mg/kg/injection, schedule: Q01DX001 (ip), vehicle: Klucel (hydroxypropylcellulose) (HPC) 102 % of control | [7] 100 % of control

CCCCCCCCCCCCSC1=CC(=O)C(OC)=C(OC)C1=O
inactive: dose: 0.78 mg/kg/injection, schedule: Q01DX009 (ip), vehicle: other 101 % of control | dose: 1.56 mg/kg/injection, schedule: Q01DX009 (ip), vehicle: other 108 % of control | dose: 3.13 mg/kg/injection, schedule: Q01DX009 (ip), vehicle: other 102 % of control | dose: 6.25 mg/kg/injection, schedule: Q01DX009 (ip), vehicle: other 108 % of control | dose: 6.25 mg/kg/injection, schedule: Q01DX030 (ip), vehicle: saline with Tween-80 101 % of control | dose: 10.0 mg/kg/injection, schedule: Q01DX030 (ip), vehicle: saline with Tween-80 108 % of control | dose: 12.5 mg/kg/injection, schedule: Q01DX009 (ip), vehicle: other 110 % of control | dose: 12.5 mg/kg/injection, schedule: Q01DX030 (ip), vehicle: saline with Tween-80 104 % of control and 108 % of control and 121 % of control | dose: 25.0 mg/kg/injection, schedule: Q01DX009 (ip), vehicle: other 118 % of control | dose: 25.0 mg/kg/injection, schedule: Q01DX030 (ip), vehicle: saline with Tween-80 105 % of control

Cc1ccc(C(=O)Nc2ccc(N(CCCl)CCCl)cc2)cc1
inactive: dose: 6.25 mg/kg/injection, schedule: Q01DX001 (ip), vehicle: Klucel (hydroxypropylcellulose) (HPC) 102 % of control | dose: 12.5 mg/kg/injection, schedule: Q01DX001 (ip), vehicle: Klucel (hydroxypropylcellulose) (HPC) 108 % of control | [18] 110 % of control

O[C@H]1CCN2CO[C@@H](c3ccccc3)C[C@H]2C1
inactive: dose: 12.5 mg/kg/injection, schedule: Q01DX005 (ip), vehicle: Klucel (hydroxypropylcellulose) (HPC) 102 % of control | dose: 25.0 mg/kg/injection, schedule: Q01DX005 (ip), vehicle: Klucel (hydroxypropylcellulose) (HPC) 103 % of control | [4] 102 % of control

Reference: PubChem BioAssay AID330 (DTP/NCI, 2004)
